Where two headings read alike, the source gives them in different places.
Tests used:
[1] = In vivo effect against P388 leukemia in mice (TD50, ED50, T.I.); conditions: mouse, in vivo, ip
Description: (§1) The in vivo effect of the novel compounds of this invention against P388 leukemia as compared to vinblastine and vincristine, were compared by the following procedure.
(§2) P388 murine leukemia cells were obtained from Southern Research Institute, Birmingham, Ala., and were maintained by serial i.p. passage in C57BL/6 mice. Female (C57BL/6×DBA/2) F1 (BDF) mice of 6-8 weeks of age from Jackson Laboratories, Bar Harbor, Maine, received 1×10^6 P388 cells by i.p. inoculation on day 0. Compounds were dissolved in saline and administered i.p. to 10 tumor-bearing mice per dose level on days 0-4 and 7-9 using 5 to 10 log2 dilutions from a concentration known to be toxic. […] The therapeutic index (T.I.) for each compound was calculated by the formula: [formula]

P388 leukemia [2] = assay: as above; conditions: for T.I. (therapeutic index): calculated from TD50 and ED50; for ED50: Mus musculus, P388, ip; for cured tumor-bearing mice at doses which were not toxic: P388 leukemia mice, non-toxic doses
Description: as §1, §2

COLO-320-DM = assay: MTT cell count (ID50), human colon cancer cell line COLO-320-DM; assay type: cell-based; conditions: 144 h, read-out: ID50 COLO-320
Protocol: (§3) In the various assays set forth below the colorimetric determination of the number of cells was carried out by the following procedure using MTT.
(§4) 3-(4,5-dimethylthiazol-2-yl)-2,5-dipenyl tetrazolium bromide (MTT) was prepared as a 5 mg/ml stock solution in phosphate buffered saline, filtered through a 0.22 μm filter and stored for up to two weeks at 4° C. while protected from light. For use in the assay it was diluted to 1 mg/ml in a pH 7.2 solution of phenol-red-free RPMI 1640 tissue culture medium supplemented with 1 mM sodium pyruvate and 50 μg/ml gentamycin. The assay was done in flat bottomed 96-well microtiter plates. Culture medium was removed from the wells by inverting and blotting the plate, fifty μl of MTT solution was added to the cells in each well, and each plate was incubated at 37° C. in an atmosphere of 5% CO2 in air. After incubation, each plate was centrifuged for 5 minutes at 8000×g and excess MTT removed by inverting and blotting. Fifty μl of 95% ethanol was added to each well and the plate was shaken (speed 6.5 for 15 minutes) to solubilize the formazan in each well. The optical density of each well was measured using an automatic plate reader with a test wavelength of 570 nm and a reference wavelength of 630 nm.
(§5) The in vitro effects of the novel compounds as compared to vinblastine and vincristine on three human colon cancer cell lines and one non-transformedhuman cell line were determined by the following procedure.
(§6) The non-transformed human fibroblast cell line, WI-38 and two of the human colon cancer cell lines, COLO-320-DM and HT-29, were obtained from the American Type Culture Collection, Rockville, MD and the third human colon cancer cell line, OM-1, was supplied by E. I. du Pont de Nemours and Co., Inc., Glenholden, PA. Both OM-1 and COLO-320-DM cells were maintained by serial passage in RPMI 1640 tissue culture medium supplemented to 10% (v/v) with heat-inactivated FBS. HT-29 cells were similarly maintained in McCoys 5A tissue culture medium supplemented with 10% heat-inactivated FBS. COLO-320-DM cells were detached by gentle scraping while HT-29 and OM-1 cells were detached using 0.25% trypsin and 0.05% trypsin, 0.5 mM EDTA solutions respectively. All cultures were incubated at 37° C. in a humidified environment of 5% CO2 in air. Experiments were conducted in 96-well flat-bottomed plates. The initial cell seeds per well for each cell line were 4,000 for WI- 38; 2,000 for COLO-320-DM; 750 for HT-29; and 3,000 for OM-1, each in the appropriate tissue culture medium. Cells were plated 24 hours before test compound was added to allow cells to recover from the effects of physical scraping and trypsinization. Varying log10 dilutions of drug were added to triplicate sets of wells and cultures were incubated for 6 days at 37° in a humidified atmosphere of 5% CO2 in air. The number of cells per well at the end of the experiment was determined colorimetrically by the reduction of MTT as described above and the results for each compounds shown in Table II. For purposes of comparison, the concentration of each test compound required to reduce the final cell number to one-half of the number in drug-free control cultures (ID50) is shown in Table II.

[3] = system: P388 multiple-drug resistant cells; assay: cells; assay type: cell-based, murine; conditions: for Fold-resistance: ID50 resistant cell line divided by ID50 wildtype cell line, 7200 min; for IC50: Mus musculus, read-out: ID50 P3/88/resist.
Protocol: as §3, §4
(§7) The differential in vitro activity of the above compounds as compared to vincristine and vinblastine with regard to P388 wild-type and P388 multiple-drug resistant leukemia was carried out by the following procedure.
(§8) Tissue culture-adapted lines of the P388 wild-type and P388 multiple-drug resistant cells (principally resistant to adriamycin) were obtained from the American Type Culture Collection, Rockville, MD. Experiments were conducted in 96-well microtiter plates with 300 cells from either line seeded in a volume of 200 μl of tissue culture medium (RPMI 1640 supplemented to 10% (v/v) with heat-inactivated fetal bovine serum (FBS) and to […] with 1-glutamine). Cells and varying log^10 dilutions of test compound were added to triplicate sets of wells on the same day and cultures were incubated for 5 days at 37° C. in a humidified atmosphere of 5% CO2 in air. The number of cells per well at the end of the experiment was determined colorimetrically by the reduction of MTT as described above.

HT-29 = assay: MTT cell count (ID50), human colon cancer cell line HT-29; assay type: cell-based; conditions: HT-29, 144 h, read-out: ID50 HT-29
Protocol: as §3, §4, §5, §6

OM-1 = assay: MTT cell count (ID50), human colon cancer cell line OM-1; assay type: cell-based; conditions: 144 h, read-out: ID50 OM-1
Protocol: as §3, §4, §5, §6

P388 wild-type cells = assay: MTT cell count (ID50), P388 wild-type leukemia cells in vitro; assay type: cell-based, murine; conditions: Mus musculus, read-out: ID50 P388/Wild
Protocol: as §3, §4, §7, §8

P388 leukemia [4] = assay: Increase in mean survival time of mice bearing P388 leukemia; assay type: in vivo; conditions: i.p.; for Increase in MST: vs vehicle
Protocol: The efficacy of the remaining compounds is clearly documented by the fact that each increased the mean survival time of tumor-bearing mice in a dose-dependentmanner. […] The percent increase in mean survival time (MST) which appears in Table IV was calculated by the following formula: [formula]

WI-38 fibroblast = assay: MTT cell count (ID50), non-transformed human fibroblast cell line WI-38; assay type: cell-based; parameters: unit not given here; conditions: 6 days incubation
Protocol: as §3, §4, §5, §6

[5] = read-out: ED50 (extrapolated values)
[6] = 120 h, P388 multiple-drug-resistant (principally adriamycin), 5 days incubation, MTT
[7] = 120 h, P388 wild-type, 5 days incubation, MTT

SMILES	LD50 [1]	T.I. (therapeutic index) (P388 leukemia [2])	IC50 (COLO-320-DM)	Fold-resistance [3]	IC50 ([3]; P388, 120 h)	IC50 (HT-29)	IC50 (OM-1)	IC50 (P388 wild-type cells; P388, 120 h)	ID50 WI-38 fibroblast (WI-38 fibroblast)	ED50 (P388 leukemia [2])	further results
CC[C@]12C=CCN3CC[C@@]4(c5cc([C@@]6(C(=O)OC)C[C@H]7CN(CCc8c6[nH]c6ccccc86)Cc6ccccc67)c(OC)cc5N(C)[C@H]4[C@@](O)(C(=O)OC)[C@@H]1OC(C)=O)[C@@H]32 [A, (9R,11S)-15-[1,2,4,9,10,11,12,17-octahydro-11-(methoxycarbonyl)-indolo(2',3':6,7)azonino(1,2,3-bc)isoquinolin-11-yl]vindoline]	0.28 mg/kg	< 1	400 nM	4	400 nM	30 nM	400 nM	95 nM	4 × 10^-7		Mean Survival Time (P388 leukemia [4]; 0.12 mg/kg (optimal dose), vehicle 9.6 days (A), 10.1 days (E)): 19.7 days; Increase in MST (P388 leukemia [4]; 0.12 mg/kg (optimal dose)): 105%
CC[C@]12C=CCN3CC[C@@]4(c5cc([C@@]6(C(=O)OC)C[C@H]7CN(CCc8c6[nH]c6ccccc86)C[C@H]6CCCC[C@H]67)c(OC)cc5N(C)[C@H]4[C@@](O)(C(=O)OC)[C@@H]1OC(C)=O)[C@@H]32 [C, (4aS,8aR,9R,11S)-15-[1,2,4,4a,5,6,7,8,8a,9,10,11,12,17-tetradecahydro-11-(methoxycarbonyl)-indolo(2',3':6,7,)azonino(1,2,3-bc)isoquinolin-11-yl]vindoline]	0.1 mg/kg	1.0	400 nM	4	850 nM	300 nM	400 nM	220 nM	5 × 10^-7		ED50 (P388 leukemia [2]; [5]): 0.1 mg/kg; Mean Survival Time (P388 leukemia [4]; 0.06 mg/kg (optimal dose), vehicle 10.1 days): 21.1 days; Increase in MST (P388 leukemia [4]; 0.06 mg/kg (optimal dose)): 109%
CC[C@]12C=CCN3CC[C@@]4(c5cc([C@@]6(C(=O)OC)C[C@H]7CN(CCc8c6[nH]c6ccccc86)Cc6ccccc67)c(OC)cc5N(C=O)[C@H]4[C@@](O)(C(=O)OC)[C@@H]1OC(C)=O)[C@@H]32 [Compound B, (9R,11S)-15-[1,2,4,9,10,11,12,17-octahydro-11-(methoxycarbonyl)-indolo(2',3':6,7)azonino(1,2,3-bc)isoquinolin-11-yl]N-demethyl-N-formylvindoline]	0.092 mg/kg	4.6	300 nM	11	510 nM	20 nM	60 nM	47 nM	1 × 10^-7	0.02 mg/kg	cured tumor-bearing mice at doses which were not toxic (P388 leukemia [2]): 50%
CC[C@]12C=CCN3CC[C@@]4(c5cc([C@@]6(C(=O)OC)C[C@H]7CN(CCc8c6[nH]c6ccccc86)C[C@@H]6CCCC[C@H]76)c(OC)cc5N(C=O)[C@H]4[C@@](O)(C(=O)OC)[C@@H]1OC(C)=O)[C@@H]32 [Compound F, (4aR,8aS,9R,11S)-15-[1,2,4,4a,5,6,7,8,8a,9,10,11,12,17-tetradecahydro-11-(methoxycarbonyl)-indolo(2',3':6,7,)azonino(1,2,3-bc)isoquinolin-11-yl]N-demethyl-N-formylvindoline]	0.045 mg/kg	2.8	400 nM	12	450 nM	30 nM	20 nM	38 nM	1 × 10^-7	0.016 mg/kg	cured tumor-bearing mice at doses which were not toxic (P388 leukemia [2]): 50%
CC[C@]12C=CCN3CC[C@@]4(c5cc([C@@]6(C(=O)OC)C[C@H]7CN(CCc8c6[nH]c6ccccc86)C[C@H]6CCCC[C@H]67)c(OC)cc5N(C=O)[C@H]4[C@@](O)(C(=O)OC)[C@@H]1OC(C)=O)[C@@H]32 [D, (4aS,8aR,9R,11S)-15-[1,2,4,4a,5,6,7,8,8a,9,10,11,12,17-tetradecahydro-11-(methoxycarbonyl)-indolo(2',3':6,7,)azonino(1,2,3-bc)isoquinolin-11-yl]N-demethyl-N-formylvindoline]	0.045 mg/kg	1.1	400 nM	36	2000 nM	40 nM	60 nM	55 nM	4 × 10^-7		ED50 (P388 leukemia [2]; [5]): 0.043 mg/kg; Mean Survival Time (P388 leukemia [4]; 0.015 mg/kg (optimal dose), vehicle 10.7 days): 26.5 days; Increase in MST (P388 leukemia [4]; 0.015 mg/kg (optimal dose)): 148%
CC[C@]1(O)C[C@@H]2CN(CCc3c([nH]c4ccccc34)[C@@](C(=O)OC)(c3cc4c(cc3OC)N(C)[C@H]3[C@@](O)(C(=O)OC)[C@H](OC(C)=O)[C@]5(CC)C=CCN6CC[C@]43[C@@H]65)C2)C1 [Vinblastine, reference compound]	0.79 mg/kg	1.9		16					5 × 10^-8	0.41 mg/kg	IC50 (COLO-320-DM; 6 days incubation, MTT): 50 nM; IC50 [3, 6]: 310 nM; IC50 (HT-29; 6 days incubation, MTT): 30 nM; IC50 (OM-1; 6 days incubation, MTT): 50 nM; IC50 (P388 wild-type cells; [7]): 19 nM
CC[C@]1(O)C[C@H]2CN(CCc3c([nH]c4ccccc34)[C@@](C(=O)OC)(c3cc4c(cc3OC)N(C=O)[C@H]3[C@@](O)(C(=O)OC)[C@H](OC(C)=O)[C@]5(CC)C=CCN6CC[C@]43[C@@H]65)C2)C1 [Vincristine, reference compound]	1 mg/kg	5.9		57					7 × 10^-8	0.17 mg/kg	IC50 (COLO-320-DM; 6 days incubation, MTT): 400 nM; IC50 [3, 6]: 410 nM; IC50 (HT-29; 6 days incubation, MTT): 30 nM; IC50 (OM-1; 6 days incubation, MTT): 50 nM; IC50 (P388 wild-type cells; [7]): 7.2 nM

Reference: patent US4935509A (priority 1989, dated 1990)
